In patent USRE37556E1, “Superoxide radical inhibitor” (Otsuka Pharmaceutical Co., Ltd., priority 1990, dated 2002):
Where a name gives a salt, the structure may show the parent alone.

test system: human neutrophilic leukocytes; test: Inhibition of superoxide radical (O2-) generation in FMLP-stimulated human neutrophilic leukocytes (ferricytochrome C method); assay type: cell-based; conditions: Homo sapiens, Leukocyte, Table 16; comparative test present compounds vs prior art compounds; NE = not effective
Text: (1) Activity for inhibiting the generation of superoxide radical (O2^−) in human neutrophilic leukocytes
That is, a whole blood obtained from a healthy adult and treated by anticoagulation method was subjected to a dextranhypotonic treatment to obtain leukocyte cells. The leukocyte cells were then subjected to a density gradient ultracentrifugation by Ficoll-Paque to obtain a neutrophilic leukocyte fraction.
O2^− generation was examined by the ferricytochrome C method in accordance with the method of B. N. Cronstein et al. [Journal of Experimental Medicine, vol. […] Each test compound was dissolved in dimethyl sulfoxide (DMSO); the solution was added to neutrophilic leukocytes before the addition of FMLP; then, the neutrophilic leukocytes were pre-incubated at 37° C.

SMILES | IC50 [µM]
CCOc1ccc(-c2nc(-c3cccc(C(=O)O)c3)cs2)cc1OCC [compound 87, 4-(3-Carboxyphenyl)-2-(3,4-diethoxyphenyl)thiazole] | 0.0048
CCOc1ccc(-c2nc(-c3ccc(O)c(C(=O)O)c3)cs2)cc1OC [compound 88, 4-(3-Carboxy-4-hydroxyphenyl)-2-(3-methoxy-4-ethoxyphenyl)thiazole] | 0.1
CCOc1ccc(-c2nc(-c3cc(C(=O)O)ccc3O)cs2)cc1OCC [compound 91, 4-(3-Carboxy-6-hydroxyphenyl)-2-(3,4-diethoxyphenyl)thiazole] | 0.023
CCOc1cc(-c2nc(-c3ccc(O)c(C(=O)O)c3)cs2)ccc1OC [compound 92, 4-(3-Carboxy-4-hydroxyphenyl)-2-(3-ethoxy-4-methoxyphenyl)thiazole] | 0.02

same assay, conditions: Homo sapiens, Leukocyte, pH 7.4, Table 15; O2- generation, 3x10^-7 M FMLP, cytochalasin B, 37° C., pH 7.4

SMILES | IC50 [µM]
COc1ccc(-c2nc(-c3ccc4[nH]c(=O)oc4c3)cs2)cc1OC [compound 55, 2-(3,4-Dimethoxyphenyl)-4-(2-oxobenzoxazol-6-yl)thiazole] | 0.07
COc1ccc(-c2nc(-c3ccc4[nH]c(=O)c(=O)[nH]c4c3)cs2)cc1OC [compound 57, 2-(3,4-Dimethoxyphenyl)-4-(2,3-dioxo-1,2,3,4-tetrahydro-quinoxalin-6-yl)thiazole] | 0.3
COc1ccc(C(=O)c2nc(-c3ccc4c(c3)CCC(=O)N4)cs2)cc1OC [compound 58, 2-(3,4-Dimethoxybenzoyl)-4-(3,4-dihydrocarbostyril-6-yl)thiazole] | 1
CCOc1ccc(-c2nc(-c3ccc4c(c3)CCC(=O)N4)cs2)cc1OCC [compound 59, 2-(3,4-Diethoxyphenyl)-4-(3,4-dihydrocarbostyril-6-yl)thiazole] | 0.08
COc1ccc(-c2nc(-c3ccccn3)cs2)cc1OC [compound 60, 2-(3,4-Dimethoxyphenyl)-4-(2-pyridyl)thiazole hydrochloride] | 0.05
CCOc1ccc(-c2nc(-c3cc(O)cc(O)c3)cs2)cc1OCC [compound 61, 4-(3,5-Dihydroxyphenyl)-2-(3,4-diethoxyphenyl)-thiazole] | 0.003
COc1ccc(-c2nc(-c3ccc(OS(=O)(=O)O)cc3)cs2)cc1OC [compound 63, 4-(4-Hydroxysulfonyloxyphenyl)-2-(3,4-dimethoxyphenyl)thiazole] | 0.03
CCOc1ccc(-c2nc(-c3ccc(O)cc3)cs2)cc1OCC [compound 64, 4-(4-Hydroxyphenyl)-2-(3,4-diethoxyphenyl)thiazole] | 0.04
CCOc1ccc(-c2nc(-c3ccc(O)c(NC(C)=O)c3)cs2)cc1OCC [compound 65, 4-(3-Acetylamino-4-hydroxyphenyl)-2-(3,4-diethoxyphenyl)thiazole] | 0.06
CCOc1ccc(-c2nc(-c3ccc(O)c(N)c3)cs2)cc1OCC [compound 66, 4-(4-Hydroxy-3-aminophenyl)-2-(3,4-diethoxyphenyl)thiazole dihydrochloride] | 0.06
CCOc1ccc(-c2nc(-c3ccc(C#N)cc3)cs2)cc1OCC [compound 67, 4-(4-Cyanophenyl)-2-(3,4-diethoxyphenyl)thiazole] | 0.07
CCCOc1cc(-c2nc(-c3ccc4c(c3)CCC(=O)N4)cs2)ccc1OC [compound 68, 4-(3,4-Dihydrocarbostyril-6-yl)-2-(4-methoxy-3-propoxy-phenyl)thiazole] | 0.08
CCOc1ccc(-c2nc(-c3ccc(C(=N)N)cc3)cs2)cc1OCC [compound 69, 4-(4-Amidinophenyl)-2-(3,4-diethoxyphenyl)thiazole hydrochloride] | 0.1
COc1ccc(-c2nc(-c3c(O)cc(O)cc3O)cs2)cc1OC [compound 70, 4-(2,4,6-Trihydroxyphenyl)-2-(3,4-dimethoxyphenyl) thiazole] | 0.2
COc1ccc(-c2nc(-c3cc(N)cc(N)c3)cs2)cc1OC [compound 71, 4-(3,5-Diaminophenyl)-2-(3,4-dimethoxyphenyl) thiazole dihydrochloride] | 0.2
CCOc1ccc(-c2nc(-c3ccc(N)cc3)cs2)cc1OCC [compound 72, 4-(4-Aminophenyl)-2-(3,4-diethoxyphenyl)thiazole hydrochloride] | 0.2
CCOc1ccc(-c2nc(C(O)c3ccc(OC)c(OC)c3)cs2)cc1OCC (stereo not shown) [compound 73, 4-[1-Hydroxy-1-(3,4-dimethoxyphenyl)methyl]-2-(3,4-diethoxyphenyl)thiazole] | 0.2
CCN1CCN(c2cc(-c3csc(-c4ccc(O)c(O)c4)n3)ccc2OC)CC1 [compound 74, 4-[4-Methoxy-3-(4-ethyl-1-piperazinyl)phenyl]-2-(3,4-dihydroxyphenyl)thiazole trihydrochloride] | 0.3
CCOc1ccc(-c2nc(-c3ccc(Cl)cc3)cs2)cc1OCC [compound 75, 4-(4-Chlorophenyl)-2-(3,4-diethoxyphenyl)thiazole] | 0.6

SMILES | IC50 [µM]
CC(=O)Oc1ccc(-c2csc(-c3cccnc3)n2)cc1OC(C)=O [compound 76, 4-(3,4-Diacetyloxyphenyl)-2-(3-pyridyl)thiazole] | 0.6
CCOc1ccc(-c2nc(-c3cc(OC(C)=O)cc(OC(C)=O)c3)cs2)cc1OCC [compound 79, 4-(3,5-Diacetyloxyphenyl)-2-(3,4-diethoxyphenyl) thiazole] | 0.0013
CCOc1ccc(-c2nc(-c3ccc(O)c(C(=O)OC)c3)cs2)cc1OCC [compound 80, 4-(4-Hydroxy-3-methoxycarbonylphenyl)-2-(3,4-diethoxyphenyl)thiazole] | 0.01
CCOc1ccc(-c2nc(-c3ccc(OCC(=O)OC)c(C(=O)OC)c3)cs2)cc1OCC [compound 81, 4-(4-Methoxycarbonylmethoxy-3-methoxycarbonylphenyl)-2-(3,4-diethoxyphenyl)thiazole] | 0.026
C=CCc1cc(-c2csc(-c3ccc(OCC)c(OCC)c3)n2)cc(C(=O)O)c1O [compound 83, 4-(3-Carboxy-4-hydroxy-5-allylphenyl)-2-(3,4-diethoxyphenyl)thiazole] | 0.04
C=C(C)Cc1cc(-c2csc(-c3ccc(OCC)c(OCC)c3)n2)cc(C(=O)O)c1O [compound 84, 4-{3-Carboxy-4-hydroxy-5-(2-methyl-2-propenyl)-phenyl}-2-(3,4-diethoxyphenyl)thiazole] | 0.02
CCOc1ccc(-c2nc(-c3cc(C)c(O)c(C(=O)O)c3)cs2)cc1OCC [compound 85, 4-(3-Carboxy-4-hydroxy-5-methylphenyl)-2-(3,4-diethoxyphenyl)thiazole] | 0.08
CCOc1ccc(-c2nc(-c3ccc(O)c(C(=O)OC)c3)cs2)cc1OC [compound 86, 4-(3-Methoxycarbonyl-4-hydroxyphenyl)-2-(3-methoxy-4-ethoxyphenyl)thiazole] | 0.033
CCOc1ccc(-c2nc(-c3cccc(C(=O)O)c3)cs2)cc1OCC [compound 87, 4-(3-Carboxyphenyl)-2-(3,4-diethoxyphenyl)thiazole] | 0.0048
CCOc1ccc(-c2nc(-c3ccc(O)c(C(=O)O)c3)cs2)cc1OC [compound 88, 4-(3-Carboxy-4-hydroxyphenyl)-2-(3-methoxy-4-ethoxyphenyl)thiazole] | 0.1
CCOc1ccc(-c2nc(-c3cc(N)c(O)c(C(=O)OC)c3)cs2)cc1OCC [compound 89, 4-(3-Amino-4-hydroxy-5-methoxycarbonylphenyl)-2-(3,4-diethoxyphenyl)thiazole] | 0.007
CCOc1ccc(-c2nc(-c3cc(C(=O)O)ccc3O)cs2)cc1OCC [compound 91, 4-(3-Carboxy-6-hydroxyphenyl)-2-(3,4-diethoxyphenyl)thiazole] | 0.023
CCOc1ccc(-c2nc(-c3cc(CC(C)C)c(O)c(C(=O)O)c3)cs2)cc1OCC [compound 93, 4-(3-Carboxy-4-hydroxy-5-isobutylphenyl)-2-(3,4-diethoxyphenyl)thiazole] | 0.012
CCOc1ccc(-c2nc(-c3cc(C(=O)O)c(N)cc3O)cs2)cc1OCC [compound 95, 4-(3-Carboxy-4-amino-6-hydroxyphenyl)-2-(3,4-diethoxyphenyl)thiazole] | 0.0087
CCOc1ccc(-c2nc(-c3ccc(N)c(C(=O)O)c3)cs2)cc1OCC [compound 96, 4-(3-Carboxy-4-aminophenyl)-2-(3,4-diethoxyphenyl)-thiazole] | 0.023
CCOc1ccc(C2(c3ccc(OCC)c(OCC)c3)NC(c3ccc(OC(C)=O)c(C(=O)O)c3)=CS2)cc1OCC [compound 97, 4-(3-Carboxy-4-acetyloxyphenyl)-2-(3,4-diethoxyphenyl)-2-(3,4-diethoxyphenyl)thiazole] | 0.1
CCOc1ccc(-c2nc(-c3ccc(O)c(CC)c3)cs2)cc1OCC [compound 98, 4-(3-Ethyl-4-hydroxyphenyl)-2-(3,4-Diethoxyphenyl)thiazole] | 0.083
CCOc1ccc(-c2nc(-c3ccc(O)c(C(=O)O)c3)c(C)s2)cc1OCC [compound 99, 4-(3-Carboxy-4-hydroxyphenyl)-2-(3,4-diethoxyphenyl)-5-methylthiazole] | 0.72
CCOc1ccc(-c2nc(-c3cc(C(=O)O)c(O)cc3O)cs2)cc1OCC [compound 100, 4-(3-Carboxy-4,6-dihydroxyphenyl)-2-(3,4-diethoxyphenyl)thiazole] | 0.048

same assay, conditions: Table 15; O2- generation, 3x10^-7 M FMLP, cytochalasin B, 37° C., pH 7.4

SMILES | IC50 [µM]
Fc1ccc(-c2csc(-c3cccnc3)n2)cc1.Fc1ccc(-c2csc(-c3cccnc3)n2)cc1.Fc1ccc(-c2csc(-c3cccnc3)n2)cc1.[Cl][Fe][Cl] [compound 56, 2-(3-Pyridyl)-4-(4-fluorophenyl)thiazole-⅓ FeCl2 salt] | 1
COC(=O)C1OC(Oc2ccc(-c3csc(-c4ccc(OC)c(OC)c4)n3)cc2)C(O)C(O)C1O [compound 77, Methyl 4-[2-(3,4-dimethoxyphenyl)thiazole-4-yl]phenyl-β-D-glucopyranosidouronate] | 0.8
CCOc1ccc(-c2nc(-c3ccc(O[C@@H]4O[C@H](COC(C)=O)[C@@H](OC(C)=O)[C@H](OC(C)=O)[C@H]4OC(C)=O)cc3)cs2)cc1OCC [compound 78, 2-(3,4-Diethoxyphenyl)-4-[4-(2,3,4,6-tetra-0-acetyl-β-D-glucopyranosyloxy)phenyl]thiazole] | 1
CCCc1cc(-c2csc(-c3ccc(OCC)c(OCC)c3)n2)cc(C(=O)O)c1O [compound 90] | 0.008
